Measurements: the NIST ThermoML archive (doi:10.1016/j.jct.2015.06.010)

Settings: 101.33 kPa, Liquid; for electrical conductivity: Alternating current cell with electrodes; for viscosity: Concentric cylinders viscometry; for mass density: Vibrating tube method

Cn1cc[n+](CCO)c1.O=S(=O)([N-]S(=O)(=O)C(F)(F)F)C(F)(F)F
Settings | electrical conductivity [S/m] | mass density [kg/m3] | viscosity [mPa·s]
283.15 K | 0.132 | 1588.6 | 213.4
288.15 K | 0.179 | 1583.6 | 153.7
293.15 K | 0.237 | 1578.6 | 114.1
298.15 K | 0.305 | 1573.7 | 86.89
303.15 K | 0.387 | 1568.8 | 67.66
308.15 K | 0.481 | 1563.9 | 53.88
313.15 K | 0.589 | 1559.1 | 43.52
318.15 K | 0.704 | 1554.2 | 35.85
323.15 K | 0.83 | 1549.4 | 29.83
328.15 K | 0.967 | 1544.6 | 25.2
333.15 K | 1.11 | 1539.8 | 21.52
338.15 K | 1.28 | 1535 | 18.46
343.15 K | 1.45 | 1530.2 | 16.08
348.15 K | 1.63 | 1525.5 | 14.06
353.15 K | 1.81 | 1520.7 | 12.44

Cn1cc[n+](CC#N)c1.O=S(=O)([N-]S(=O)(=O)C(F)(F)F)C(F)(F)F
Settings | electrical conductivity [S/m] | mass density [kg/m3] | viscosity [mPa·s]
283.15 K | 0.0283 | 1625.9 | 1140
288.15 K | 0.0439 | 1620.5 | 708.6
293.15 K | 0.0648 | 1615 | 463.4
298.15 K | 0.0919 | 1609.7 | 315.5
303.15 K | 0.129 | 1604.6 | 222.8
308.15 K | 0.173 | 1599.6 | 162.4
313.15 K | 0.225 | 1594.6 | 121.7
318.15 K | 0.285 | 1589.8 | 93.56
323.15 K | 0.36 | 1584.8 | 73.61
328.15 K | 0.441 | 1579.9 | 58.99
333.15 K | 0.536 | 1575.1 | 47.93
338.15 K | 0.644 | 1570.2 | 39.7
343.15 K | 0.756 | 1565.4 | 33.27
348.15 K | 0.878 | 1560.6 | 28.11
353.15 K | 1.01 | 1555.8 | 24.06
